Test results taken from patent US20240158430A1, “NOVEL COMPOUND OR SALT THEREOF, AND ANTITUMOR ACTIVATOR CONTAINING SAME AS ACTIVE INGREDIENT” (AKITA UNIVERSITY, priority 2021, published 2024).

Experiments:
HCT116 = experiment: In vivo antitumor effect, HCT116 subcutaneous implant; conditions: nude mouse, HCT116 s.c.; 1 mg single tail vein injection; maximum diameter 4 days after; control 113.7±12.4%
Description: The in vivo antitumor effect of GO-Y199 was investigated. The method is as follows. HCT116 was implanted subcutaneously into a nude mouse. After tumor formation, 100 mM GO-Y199 in DMSO was dissolved in 100 μL of PBS and injected once into the tail vein of the mouse (corresponding to 1 mg of GO-Y199). As a control group, a DMSO-PBS solution having the equivalent concentration was injected once into the tail vein. The maximum diameter of the tumor was measured 4 days after the administration.

Turbidity measurement = type: physicochemical
Description: The turbidity of various compounds was measured. The method is as follows. […] Curcumin was cloudy while GO-Y199 was clear. The solubility was measured with a turbidimeter (WZB-170 Portable Turbidimeter available from REX). The turbidity of the compound was corrected for concentration.
Subsequently, GO-Y206 and curcumin were adjusted to final concentrations of 1.25 μM and 5.00 μM, respectively, and their turbidities were measured.

[1] = test system: gastric cancer cell line GCIY; experiment: Cell growth inhibitory activity, GCIY; type: cell-based
Description: [The source words this procedure for another cell line and reports this cell line under the same test.] (§1) The cell growth inhibitory activity against a colorectal cancer cell line HCT116 was measured. As an index of cell growth inhibitory activity, a concentration at which cell growth was inhibited by 50% as compared with a control (IC50) was used. The method is as follows. HCT116 was added to a 6-well plate by 5×10^4, compounds having various concentrations were added after 24 hours, and the number of cells was counted after 72 hours of culture. As the control, DMSO was used in an amount equal to the amount added in accordance with the addition concentration of the highest-concentration compound. The number of cells at each concentration relative to the control was expressed as a percentage.
(§2) The method is as described above.

[2] = test system: cutaneous T-cell lymphoma cell line HUT78; experiment: Cell growth inhibitory activity, HUT78; type: cell-based; conditions: Table 10
Description: [The source words this procedure for another cell line and reports this cell line under the same test.] as §1, §2

[3] = test system: colorectal cancer cell line HT29; experiment: Cell growth inhibitory activity, HT29; type: cell-based; conditions: Table 4; 72 hours
[4] = test system: pancreatic cancer cell line Panc-1; experiment: Cell growth inhibitory activity, Panc-1; type: cell-based; conditions: Table 7
Description: [The source words this procedure for another cell line and reports this cell line under the same test.] as §1, §2

pSTAT3 = experiment: Influence on pSTAT3, immunohistochemistry; type: cell-based; conditions: 2 μM; 24 hours; control 10.2±1.6%
Description: The influence of GO-Y199 on NF-kB (p65) was investigated. The method is as follows. 3×10^6 cells of the HCT116 cell line were added to a 10-cm plate, 2 μM of GO-Y199 was added after 24 hours, the cells were collected after 24 hours, embedded in iPGell (GenOStaff), and fixed in formalin, paraffin blocks were then prepared, and immuno-histochemistry was performed with an anti-NF-kB (p65) antibody. In addition, 2 μM and 5 μM of GO-Y199 were added, lysates were collected after 24 hours, and an expression level of NF-kB (p65) was analyzed using an ELISA-plate (NF-kBp65 (pS536) SimpleStep-ELISA-kit, Abcam). An amount of protein was corrected by the absorbance of A 280 nm. The upper part of FIG. 14 indicates photographs of the control group and the GO-Y199 (2 μM)-added group after 24 hours. The lower part of FIG. 14 indicates results of the t-test of these groups after 24 hours. FIG. 15 indicates the comparison results of the NF-kB inhibitory effect of GO-Y199 (2 μM, 5 μM)-added groups with respect to the control group.
The influence of GO-Y199 on pSTAT3 was investigated. The method is as described above. Immunohistochemistry was performed with an anti-pSTAT3 antibody. The upper part of FIG. 16 indicates photographs of the control group and the GO-Y199 (2 μM)-added group after 24 hours. The lower part of FIG. 16 indicates results of the t-test of these groups after 24 hours.

[5] = test system: pancreatic cancer cell line ASPC-1; experiment: Cell growth inhibitory activity, ASPC-1; type: cell-based; conditions: Table 7
Description: [The source words this procedure for another cell line and reports this cell line under the same test.] as §1, §2

[6] = test system: breast cancer cell line HCC1395; experiment: Cell growth inhibitory activity, HCC1395; type: cell-based
Description: [The source words this procedure for another cell line and reports this cell line under the same test.] as §1, §2

[7] = test system: malignant pleural mesothelioma cell line NCI-H226; experiment: Cell growth inhibitory activity, NCI-H226; type: cell-based; conditions: Table 8
Description: as §1, with “percentage. In Table 3, the turbidities of the compounds are also indicated.” for “percentage.”
GO-Y198, GO-Y199, and GO-Y200 against malignant pleural mesothelioma cell lines NCI-H226 and MSTO211H was measured. The method is as described above. For comparison, the IC50 of cisplatin (CDDP), a cytocidal anticancer agent, is also indicated.

[8] = test system: cutaneous T-cell lymphoma cell line HH; experiment: Cell growth inhibitory activity, HH; type: cell-based; conditions: Table 10
Description: [The source words this procedure for another cell line and reports this cell line under the same test.] as §1, §2

[9] = Blood concentration after intravenous injection; type: in vivo, BALB/cSlc-nu/+ mice; conditions: mouse, 1 mg tail vein
Description: The blood concentration of GO-Y199 after intravenous injection was investigated. The method is as follows. To BALB/cSlc-nu/+ mice, the equivalent of 1 mg of GO-Y199 was injected into the tail vein as described above, blood was collected from the orbital vein over time, and the serum was subjected to HPLC to measure the blood concentration of GO-Y199. FIG. 27 indicates results of HPLC analysis of blood after intravenous injection. FIG. 28 indicates results of changes over time in the blood concentration of GO-Y199 after intravenous injection.

[10] = test system: gastric cancer cell line SH-10-TC; experiment: Cell growth inhibitory activity, SH-10-TC; type: cell-based
Description: [The source words this procedure for another cell line and reports this cell line under the same test.] as §1, §2

Question: What does the source list for COCOc1cc(/C=C/C(=O)CC(SCCOCCOCCOCCOCc2cn([C@@H]3O[C@H](CO)[C@@H](O[C@@H]4O[C@H](CO)[C@H](O)[C@H](O)[C@H]4O)[C@H](O)[C@H]3O)nn2)c2cc(OCOC)cc(OCOC)c2)cc(OCOC)c1 (stereo partly drawn) [GO-Y199]?
Answer: tumor augmentation, % of that before the administration (HCT116): 95.2±20.0%; Turbidity/μm (Turbidity measurement; Table 1, average turbidity corrected for final concentration (1.7-170 μm, per compound)): 0.00041 NTU/μM; Relative Value (turbidity) (Turbidity measurement; Table 1, turbidity/μm relative to curcumin = 1): 0.0014; Turbidity (Relative Value) (Turbidity measurement; Table 3, relative to curcumin = 1): 0.0014; Ave Turbidity (NTU) (Turbidity measurement; final conc. 170 μm in DDW): 0.07 ± 0.05 NTU; appearance of solution (Turbidity measurement; final concentration 50 μM in distilled water or DMEM with 10% fetal bovine serum, from DMSO): clear; IC50 ([1]; Table 4, 72 hours): 160 nM; GO-Y199 vs GO-Y030 (IC50 comparison), GCIY ([1]; Table 5, ratio of IC50): 1.24; GO-Y199 vs curcumin (IC50 comparison), GCIY ([1]; Table 5, ratio of IC50): 0.03; IC50 [2]: 0.84 µM; IC50 [3]: 750 nM; IC50 [4]: 0.95 µM; relative expression level of pSTAT3 (pSTAT3): 0.3±0.5%; IC50 [5]: 1.03 µM; IC50 ([6]; Table 4, 72 hours): 720 nM; GO-Y199 vs GO-Y030 (IC50 comparison), HCC1395 ([6]; Table 5, ratio of IC50): 0.34; IC50 [7]: 4.7 µM; IC50 [8]: 1.11 µM; time for which the blood concentration is maintained [9]: 3 h; time after which GO-Y199 disappeared from the blood ([9]; serum HPLC): 180 min; time until which the blood concentration rapidly decreased ([9]; serum HPLC): 60 min; IC50 ([10]; Table 4, 72 hours): 1000 nM; GO-Y199 vs GO-Y030 (IC50 comparison), SH-10-TC ([10]; Table 5, ratio of IC50): 0.65; GO-Y199 vs curcumin (IC50 comparison), SH-10-TC ([10]; Table 5, ratio of IC50): 0.124
